Source: EP0062319A1, “3-Methyl-1-(2-(3-naphthyloxy)-ethyl)-2-pyrazolin-5-one for the treatment of the metastasis and growth of tumour cells” (BAYER AG, priority 1981, dated 1982)

What was measured:
[1] = test system: B-16a-amelanotischem Melanom; experiment: Spontaneous (full) metastasis of subcutaneously injected B-16a melanoma (lung tumour colonies) in mice; format: in vivo, C57BL/6J Mäuse; settings: for Lungen-Tumor-Kolonien B-16a-Zellen: 1,8 x 10^5 cells s.c., killed day 25, mean ± SEM; for Lungen-Tumor-Kolonien B-16a-Zellen (fraction in brackets): bracketed fraction
Source text: Wie bereits weiter oben festgestellt wurde, ist die Metastase […], die durch eine Reihe komplizierter Vorgänge dargestellt wird. Gegenwärtig finden zwei "Modell"-Systeme für die Untersuchung der in vivo-Metastase verbreitete Anwendung. Das erste Modellsystem umfaßt die subkutane Injektion der Tumorzellen in das Tier. Die subkutane Injektion der Tumorzellen und anschließende Entwicklung eines Primärtumors, gefolgt von spontaner Metastase, wird als "volle" Metastase betrachtet. Ein anderes Modellsystem umfaßt die Injektion der Tumorzellen durch die Schwanzvene. In Anbetracht der Komplexität der Metastase gilt die Schwanzvenen-Injektion als künstliches und nur partielles Modellsystem, da es nur die Vorgänge während des letzteren Teils der Metastase wiedergibt. Das Schwanzvenen-Modellsystem gilt jedoch auch als außerordentlich günstig im Hinblick auf eine Standardisierung der Versuchsbedingungen [vgl."Methods in Cancer Research", Kapitel VII, Academic Press, Inc., 1978].
Als Kontrolltiere wurden (unbehandelte) C57B1/6J-Mäuse nach folgender Arbeitsweise auf volle Metastase untersucht. Zellsuspensionen der B-16 - und 3LL-Karzinom-Zellen, die wie oben unter A und B beschrieben erhalten worden waren, wurden subkutan in die rechte Achselhöhlenregion der männlichen C57BL/6J-Mäuse injiziert (0,66 mm- = 26 gauge -Nadel; 0,2 ml). Injiziert wurden verschiedene Mengen der Zellsuspensionen im Bereich von 1 x 10^5 bis 1 x 10^6 Zellen. Versuche zur partiellen Metastase wurden in der Weise durchgeführt, daß Tumorzellen über die Schwanzvene in die (unbehandelten) Kontroll-Mäuse injiziert wurden. Die Tiere wurden unter identischen Bedingungen der Temperatur, Lichteinwirkungsdauer, Ernährung etc. gehalten. Nach einem Beobachtungszeitraum von 17 bis 30 Tagen wurden die für die volle Metastase und für die partielle Metastase verwendeten Tiere getötet, und die Lungen, Leber, Nieren, Milz und Gehirn-Gewebe wurde entnommen.
Das entnommene Gewebe wurde in Bouin-Lösung fixiert.
Die Zahl der metastatischen Knötchen in jedem Organ wurde mit Hilfe eines Bausch-und-Lomb Stereo-Zoom-Mikroskops bestimmt. Die Untersuchung der Kontroll- Mäuse auf metastatische Knötchen ergab bei 100 % der Tiere positive Befunde in bezug auf metastatische Lungentumoren; die Inkubationszeit für die Erzeugung solcher Metastasen betrug für die 3LL-Tumorzellen 17 bis 21 Tage und für die B-16 a -Tumorzellen 23 bis 30 Tage. In Leber, Nieren, Milz oder Gehirn-Gewebe wurden keine sichtbaren Knötchen beobachtet.
Die Wirkung der Verabreichung der Pyrazolon-Verbindung über einen längeren Zeitraum hinweg auf die Zahl der metastatischen Lungen-Kolonien des B-16 a und des Lewis-Lungen-Karzinoms wurde wie nachstehend beschrieben bestimmt.
3 mg 3-Methyl-1-[2-(2-naphthyloxy)-ethyl]-2-pyrazolin-5-on wurden in 0,6 ml Ethylalkohol gelöst, und die Lösung wurde mit konzentrierter Natronlauge auf pH 9,5 eingestellt.
Syngeneischen C57BL/6J Wirts-Mäusen wurde eine Suspension von 1,8 x 10^5 B-16 a -Zellen subkutan injiziert, die wie vorstehend beschrieben hergestellt wurde. Einer anderen Reihe syngeneischer C57BL/6J Wirts-Mäuse wurde eine Suspension von 1 x 10^5 Lewis-Lungen-Karzinom-Zellen, erhalten wie vorstehend beschrieben, subkutan injiziert. […] Die Kontroll-Mäuse und die behandelten Mäuse wurden unter identischen Bedingungen der Temperatur, Lichteinwirkungsdauer, Ernährung etc. gehalten. Die Mäuse, die die B-16 -Tumorzellen injiziert erhalten hatten wurden 25 Tage nach der Injektion der Tumorzellen getötet; die Mäuse, denen die Lewis-Lungen-Karzinom-Zellen injiziert worden waren, wurden 21 Tage nach der Injektion der Tumorzellen getötet.

B-16a-Zellen = experiment: DNA synthesis by 3H-thymidine uptake in B-16a cells in vitro; format: cell-based, Mäuse; settings: 0,1, 1,0, 10 and 25 µg/ml, 4 h and 18 h, Fig. 1, relative to control = 100 %
Source text: Die antineoplastische Wirksamkeit wurde in vitro durch Messung der DNS-Synthese sowohl von B-16a- als auch von Lewis-Lungenkarzinom-Zellen durch eine Methode gemessen, der die Thymidin-Aufnahme zugrundeliegt. Zellen, die in Vorbereitung der Zellteilung DNS synthetisieren, sind durch ihre Fähigkeit gekennzeichnet, Thymidin aufzunehmen. Demnach ist die Zell-Proliferation mit der DNS-Synthese verbunden. Wenn die Menge der durch die Tumorzellen synthetisierten DNS vermindert wird, so ist das ein Anzeichen dafür, daß die Zellteilung und damit das Tumorwachstum gehemmt worden ist.
B-16a- und Lewis-Lungenkarzinom-Zellen wurden wie vor- stehend beschrieben erhalten. Die dispergierten Zellen wurden in sterilen 25 ml-Erlenmeyer-Kolben aus Kunststoff auf eine Konzentration von 1 x 10^5 Zellen/ml in MEM verdünnt. Tritium-markiertes Thymidin (^3H) mit einer spezifischen Aktivität von […] (50-80 Ci/mmol) wurde mit […] (2 µCi/ml) zu jedem ml der Zellsuspension hinzugefügt.
Zu einer Reihe von Kolben, die die B-16 - und Lewis-Lungenkarzinom-Zellen enthielten, wurde die Pyrazolon-Verbindung in Mengen von 0,1 , 1,0 , 10 und 25 µg/ml des Gesamtvolumens hinzugefügt. […]

With `CC1=NN(CCOc2ccc3ccccc3c2)C(=O)C1` [3-Methyl-1-[2-(2-naphthyloxy)-ethyl]-2-pyrazolin-5-on] the “Lungen-Tumor-Kolonien B-16a-Zellen” value ([1]; 0.01 mg daily s.c., colonies on bilateral lung surface) was 1.7 ± 0.7, the “Lungen-Tumor-Kolonien B-16a-Zellen (fraction in brackets)” value ([1]; 0.01 mg daily s.c.) was 7/12 and the “Lungen-Tumor-Kolonien B-16a-Zellen” value ([1]; 0.02 mg daily s.c.) was 2.5 ± 0.9. The “Lungen-Tumor-Kolonien B-16a-Zellen (fraction in brackets)” value ([1]; 0.02 mg daily s.c.) was 7/12, the “Lungen-Tumor-Kolonien B-16a-Zellen” value ([1]; 0.04 mg daily s.c.) was 3.1 ± 0.8 and the “Lungen-Tumor-Kolonien B-16a-Zellen (fraction in brackets)” value ([1]; 0.04 mg daily s.c.) was 8/12. For the same molecule, the “Lungen-Tumor-Kolonien B-16a-Zellen” value ([1]; 0.08 mg daily s.c.) was 1.4 ± 0.8, the “Lungen-Tumor-Kolonien B-16a-Zellen (fraction in brackets)” value ([1]; 0.08 mg daily s.c.) was 5/12 and the “DNS-Synthese (3H-Thymidinaufnahme)” value (B-16a-Zellen) was “konzentrationsabhängige Abnahme der DNS-Synthese”.
